The test system of assay [1] is Zscan4. Kind of assay: Time-course of Emerald GFP+ (Zscan4+) cells by flow cytometry after retinoid treatment. To be noted: for day of peak of fraction of Zscan4+ cells / fraction of Zscan4+ cells / secondary increase of Zscan4+ cells: atRA, 9-cis RA, 13-cis RA 50 nM; for day of peak of fraction of Zscan4+ cells / secondary increase of Zscan4+ cells: vitamin A 5 μM; for fraction of Zscan4+ cells: vitamin A 5 μM final concentration, up to 7 days; for secondary increase of Zscan4+ cells: within 7 days of treatment. The class given is cell-based, mouse. The text has this: FIG. 9 is a line graph showing the percentage of Emerald cells following treatment of MC1-ZE7 cells in the presence or absence of leukemia inhibitory factor (LIF) and in the presence or absence of retinoic acid (RA). Cells were passaged to gelatin-coated plates in the presence of LIF (LIF+) and absence of atRA (atRA−). The next day (Day 0), the culture medium of each well was changed to four different conditions: LIF+ atRA−, LIF+ atRA+, LIF− atRA−, and LIF− atRA+. The cells were maintained in the same culture medium for 8 days with the medium changes every day, but without passaging. Cells were harvested every day and the number of Emerald GFP^+ cells was measured by flow cytometry.
(§1) FIG. 10A is a line graph showing the effect of different retinoids (atRA, 9-cis RA, 13-cis RA or vitamin A) on the percentage of Zscan4^+ cells in culture. Shown is the percentage of Emerald^+ MC1-ZE-7 cells up to seven days following exposure to the retinoid. FIG. 10B is a line graph showing the effect of the different reintoids on ES cell proliferation.
A 20 mM stock solution of all-trans retinoic acid (atRA) in ethanol was used at a final concentration of 1 μM, 2 μM, or 50 nM. 9-cis RA and 13-cis RA were used at a final concentration of […] final. Vitamin A (retinol) was used at a final concentration of 5 μM.
Zscan4 Expression is Induced Transiently by all-Trans Retinoic Acid (atRA) Mouse ES cells (referred to as pZscan4-Emerald7 (MC1-ZE7) cells) in which a plasmid carrying a green fluorescent protein (Emerald: Em) regulated under the promoter of Zscan4c is integrated in the genome were used in these studies. […] Cells were first passaged to gelatin-coated plates in the presence of leukemia inhibitory factor (LIF+) and absence of atRA (atRA−). The next day (Day 0), the culture medium of each well was changed to four different conditions: LIF+ atRA−, LIF+ atRA+, LIF− atRA−, and LIF− atRA+. The final concentration of atRA was […]. The cells were maintained in the same culture medium for 8 days with medium changes every day, but without passaging. Cells were harvested every day and the number of Emerald GFP^+ cells was measured by flow cytometry (Guava).
(§2) Although atRA is most commonly used for mammalian cell culture systems, there are other retinoids that sometimes have similar activities on the cells. To test other retinoids for Zscan4-inducibility, similar time-course kinetic assays were carried out using atRA (50 nM final concentration), 9-cis RA (50 nM final concentration), 13-cis RA (50 nM final concentration), or vitamin A (5 μM final concentration). […] Zscan4^+ cells may have growth advantages over Zscan4^− cells in the presence of vitamin A and 13-cis RA.
Background: Flow cytometry measures light scatter and fluorescence of single cells or particles in a stream.

The subject of assay [2] is MC1-ZE7 cells. Kind of assay: Effect of retinoids on ES cell proliferation. The class given is cell-based, mouse. Conditions: atRA, 9-cis RA, 13-cis RA 50 nM, vitamin A 5 μM; up to 7 days.
From the text: as §1, §2

Assay [3] concerns Zscan4. To be noted: MC1-ZE7 cells, LIF+; H2O2 100 μM, 300 μM or 1000 μM; two days.
Description: MC1-ZE7 cells were cultured in standard ES cell medium (LIF+). […] The cells were cultured for two days and the fraction of Emerald^+ (i.e., Zscan4^+ cells) was measured by flow cytometry.
MC1-ZE7 cells were cultured in standard ES cell medium (LIF+). […] The cells were cultured for two days and the percentage of Em^+ (i.e., Zscan4^+ cells) was determined by the Guava flow cytometry (Guava).
Assay [4] relates to ES cells. In words: Survival of ES cells after treatment with DNA-damaging agent (live cell count). The class given is cell-based, mouse. Conditions: then 3 more days. As for the experimental part: FIGS. 12A and 12B are graphs showing survival of control ES cells (A) and tet-Zscan4 ES cells (B) after treatment with mitomycin C (MMC). Control ES cells contained a control plasmid (tet-Empty). Cells were cultured in standard ES medium (LIF+) and passaged into two groups: (1) in the absence of doxycycline (Dox) or (2) in the presence of Dox at a final concentration of 0.2 μg/ml. The Dox+ and Dox− media were changed every day. On the fourth day, the cells were cultured for 6 hours in the presence of MMC at a final concentration ranging from 0 to 600 ng/ml. MMC was removed from the culture by changing the media and cells were then incubated for 3 more days in the Dox+ medium, with the medium changed every day. Cells were harvested and the number of live cells was counted.
Control cells (carrying the tet-Empty plasmid) and Zscan4-expressing cells (carrying the tet-Zscan4 plasmid) were used in this study. The cells were cultured in standard ES medium (LIF+). Cells were passaged into two groups: (1) in the absence of doxycycline (Dox−), or (2) in the presence of doxycycline (Dox+) at a final concentration of 0.2 μg/ml. The Dox+ and Dox− media were changed every day. On the fourth day, the cells were cultured for 6 hours in the presence of MMC at a final concentration ranging from 0 to 600 ng/ml. […] Cells were harvested and the number of live cells was counted.

Where [5] appears, read: MC1-ZE7 cells, atRA 2 M (so in the source), LIF+ and LIF-.

Structures are written as SMILES.

For `CC1=C(/C=C/C(C)=C/C=C/C(C)=C/CO)C(C)(C)CCC1` [vitamin A, retinol], in assay [1] (MC1-ZE7 cells), the “day of peak of fraction of Zscan4+ cells” value is 2 days and the “fraction of Zscan4+ cells” value was “transiently increased”. Besides, the “secondary increase of Zscan4+ cells” value in assay [1] was “observed”. Also, the “effect on cell proliferation” value in assay [2] is recorded as “did not affect cell proliferation”.

`CC1=C(/C=C/C(C)=C/C=C/C(C)=C\C(=O)O)C(C)(C)CCC1` [13-cis RA, 13-cis-retinoic acid]: in assay [1] (MC1-ZE7 cells), the “day of peak of fraction of Zscan4+ cells” value came out at 2 days and the “fraction of Zscan4+ cells” value was “transiently increased”. Also, the “secondary increase of Zscan4+ cells” value in assay [1] is recorded as “observed”. For the same compound, in assay [2], the “effect on cell proliferation” value is given as “moderate suppression of cell proliferation”.

`CC1=C(/C=C/C(C)=C/C=C/C(C)=C/C(=O)O)C(C)(C)CCC1` [atRA, all-trans retinoic acid]: in assay [1] (setting [5]), the “decline of Zscan4+ cell induction to basal level” value is “declined to the basal level by the fourth day” and the “time of peak of Em+ (Zscan4+) cell fraction” value is “peaked on the second day”. The “fraction of Em+ cells (i.e., Zscan4+ cells) in the culture” value in assay [1] (MC1-ZE7 cells, atRA 2 M (so in the source), LIF+ and LIF- conditions, 8 days, daily harvest) is reported as “dramatically induced”. Besides, in assay [1] (MC1-ZE7 cells), the “day of peak of fraction of Zscan4+ cells” value was found to be 2 days and the “fraction of Zscan4+ cells” value is recorded as “transiently increased”. Moreover, the “secondary increase of Zscan4+ cells” value in assay [1] is reported as “not”. For the same compound, the “effect on cell proliferation” value in assay [2] is listed as “nearly complete suppression of cell proliferation”.

In the case of `OO` [H2O2, Hydrogen peroxide], the “number (percentage) of Zscan4+ (Em+) cells” value in assay [3] is recorded as “increases the number of Zscan4^+ cells”.

As for `CO[C@@]12[C@H](COC(N)=O)C3=C(C(=O)C(C)=C(N)C3=O)N1C[C@@H]1N[C@@H]12` [MMC, mitomycin C], in assay [4] (Zscan4 induced by Dox removal, agent for 6 hours), the “survival of Zscan4-expressing (tet-Zscan4) ES cells against the DNA-damaging agent, Dox- versus Dox+” value is on record as “increased survival”. The cell survival rate entry in assay [4] (control (tet-Empty) ES cells, MMC 0 to 600 ng/ml for 6 hours) is reported as “the higher the dose of MMC, the lower the cell survival rate”.

On to `CC1=C(/C=C/C(C)=C\C=C\C(C)=C\C(=O)O)C(C)(C)CCC1` [9-cis RA, 9-cis retinoic acid], for which, in assay [1] (MC1-ZE7 cells), the “day of peak of fraction of Zscan4+ cells” value came out at 2 days and the “fraction of Zscan4+ cells” value is listed as “transiently increased”. Moreover, in assay [1], the “secondary increase of Zscan4+ cells” value is reported as “not”. Also, the “effect on cell proliferation” value in assay [2] is given as “nearly complete suppression of cell proliferation”.

Values taken from patent US9012223B2, “Methods for enhancing genome stability and telomere elongation in embryonic stem cells” (The United States of America, as represented by the …, priority 2009, dated 2015).
